Columns and labels:
[1] = tested on: BAD phosphorylation in primary CLL cells; assay: BAD dephosphorylation in primary leukemia cells, western blot; format: cell-based, human
[2] = tested on: colon cancer cells without p53 expression; assay: Sensitivity of colon cancer cells without p53; format: cell-based, human; details: separate experiment
Description: (§1) The effect of Glycolycin on human colon cancer cells (HCT116) and human brain tumor cells (U87MG) were tested using MTT assays for a 72 hour incubation. […] The IC50 value of S-Glycolycin for brain tumor U87MG cells is approximately 30 μM. […] This is of clinical significance, since the majority of human cancers are defective in p53 function and show reduced response to radiotherapy and certain anticancer agents.

[3] = tested on: human leukemia HL-60 cell line; assay: Depletion of cellular ATP pool (PCA extraction, HPLC); format: cell-based
Description: (§2) Cells were incubated with the indicated concentrations of S-Glycolycin or 3-BrPA for 12 h. Cellular ATP was extracted by 0.4 N PCA, neutralized with KOH, and quantified by HPLC analysis. […] Incubation of cells with 0.03 mM S-Glycolycin completely depleted cellular ATP in both cell lines, while it required a 10-fold greater concentration (0.3 mM) of 3-BrPA to achieve the same degree of ATP depletion.

[4] = tested on: respiration-deficient subclone HL-60/C6F cells; assay: as above; format: cell-based, human; details: 12 h incubation
Description: as §2

[5] = tested on: human colon cancer cells (HCT116); assay: MTT assay, 72 hour incubation; format: cell-based; details: HCT-116
Description: as §1

[6] = tested on: human brain tumor cells (U87MG); assay: MTT assay, 72 hour incubation; format: cell-based; details: U-87 MG
Description: as §1

[7] = tested on: HL-60/AR cells; assay: MTT cytotoxicity, drug-resistant clone versus parental cells; format: cell-based, human; details: MTT assay
Description: HL-60 cell line and its drug-resistant clone HL-60/AR were incubated with the indicated concentrations of doxorubicin, vincristine, and 3-BrPA for 72 h. Cytotoxicity was measured by MTT assay. […] Based on the teachings provided herein, studies may be performed to determine the sensitivity of HL-60/AR cells to Glycolycin.
Ara-C, a drug commonly used in the frontline treatment of leukemia, was used in parallel experiments. Cytotoxicity was measured by MTT assay.

[8] = tested on: parental HL-60 cells; assay: Effect of glutamine on cytotoxic activity, apoptosis at 24 h; format: cell-based, human; details: 1 mM glutamine for 2 h
Description: (§3) The effect of glutamine on the cytotoxic activity of S-Glycolycin in wild-type HL-60 cells and respiration-deficient C6F cells was compared. Parental HL-60 cells were incubated with the indicated concentrations of S-Glycolycin in the presence or absence of 1 mM glutamine for 2 h, washed, and re-cultured in fresh medium. Apoptosis was measured at 24 h. […] In FIG. 26, the respiration-deficient cells (HL-60-C6F) were incubated with the indicated concentrations of S-Glycolycin in the presence or absence of 1 mM glutamine for 2 h, washed, and re-cultured in fresh medium. Apoptosis was measured at 24 h. Thus, glutamine supplement offers some degree of protection for cells with competent mitochondrial function.

[9] = tested on: respiration-deficient C6F cells (HL-60-C6F); assay: as above; format: cell-based, human; details: 1 mM glutamine for 2 h
Description: as §3

[10] = tested on: BAD phosphorylation (Ser112) in HL-60 cells; assay: BAD phosphorylation at Ser112, western blot; format: cell-based, human
Description: HL-60 cells were incubated with the indicated concentrations of each compound for 3 h. BAD and its phosphorylation at Ser112 were measured by western blot analysis, using the respective antibodies. β-Actin was also blotted as the protein loading control.
A time- and dose-dependent effect of S-Glycolycin on the expression level of pro-apoptotic factor BAD and its phosphorylation at Ser112 is provided in FIG. 18. HL-60 cells were incubated with the indicated concentrations of S-Glycolycin for various times. Total BAD protein and its phosphorylation at Ser112 were measured by western blot analysis using the respective antibodies. β-actin was also blotted as the protein loading control. […] Note that severe ATP depletion can be induced by S-Glycolycin at 30-50 μM, but not at 10 μM (FIG. 15).

[11] = tested on: primary CLL cells; assay: MTT assay in primary leukemia cells; format: cell-based, human
[12] = tested on: human colon cancer cells (HCT116); assay: Colony formation under hypoxic conditions, with radiation; format: cell-based
Text: It is known in the art that under hypoxic conditions, cancer cells become less sensitive to radiation therapy, partially due to up-regulation of expression of survival factors and less generation of free radicals without oxygen. However, under hypoxic conditions cancer cells depend on glycolysis for generation of ATP, which is the essential energy source for repair of the DNA damage caused by radiation. Thus, it is contemplated that Glycolycin can effectively deplete cellular ATP pool under hypoxic conditions and enhance the therapeutic activity of radiation. […] Combination of Glycolycin and radiation almost completely killed all cells plated (up to 200,000 cells/well). Thus, Glycolycin is an effective agent to enhance the effectiveness of radiotherapy.

[13] = tested on: HL-60 cells; assay: Induction of apoptosis, annexin-V/PI flow cytometry; format: cell-based, human; details: 30 μM; 24 h
Description: HL-60 cells were incubated with the indicated concentrations of S-Glycolycin or 3-BrPA for 24 h. Apoptosis was measured by double staining with annexin-V and PI, followed by flow cytometry analysis. […] Incubation of HL-60 cells with 30 μM of S-Glycolycin caused more 90% cells to undergo apoptosis in 24 h, whereas the same concentration of 3-BrPA killed less than 20% of the cells within the same time period.

[14] = tested on: human lymphoma cells (Raji); assay: Sensitivity under hypoxic versus normoxic conditions, annexin-V/PI assay 24 h; format: cell-based; details: 40 μM
Description: (Annexin-V/PI assay, 24 h)
Cancer cells in solid tumors have to adapt to the hypoxia environment due to insufficient blood supply. Under hypoxia conditions, cancer cells use the glycolytic pathway to generate ATP without consuming oxygen. This metabolic adaptation also renders cancer cells relatively resistant to anticancer agents and radiation therapy, partially due to up-regulation of expression of cell survival factors such as HIF-1α. […] However, because under hypoxia condition cancer cells dependent on glycolysis for generation of ATP, it is contemplated that such cancer cells are vulnerable to glycolytic inhibition by Glycolycin. […] Thus, it is envisioned that Glycolycin can be use for effective treatment of many solid tumors, either as a single agent or in combination with other anticancer agents.

[15] = tested on: HL-60 cells with high Bcl-2 expression; assay: MTT growth inhibition of Bcl-2 transfected cells; format: cell-based, human; details: MTT assay
Description: Cell growth inhibition was measured by MTT assay.
Increased expression of the anti-apoptotic molecule Bcl-2 has been associated with drug resistance in cancer cells. The over-expression of Bcl-2 in HL-60 cells was […] against the cytotoxic effect of S-Glycolycin. […] Thus, Glycolycin may be used to overcome drug resistance due to Bcl-2 over expression.

Structure (SMILES): O=C(O)O.O=C([O-])C(=O)CBr.[Na+] [S-Glycolycin, Sodium 3-bromo-2-oxopropionate carbonic acid]
- BAD dephosphorylation, comparison [1]: more active than 3-BrPA
- sensitivity compared with p53-expressing colon cancer cells [2]: similarly sensitive
- concentration that completely depleted cellular ATP ([3]; 12 h incubation, HL-60): 0.03 mM
- concentration inducing severe ATP depletion ([3]; not at 10 μM): 30 to 50 µM
- concentration that completely depleted cellular ATP [4]: 0.03 mM
- IC50 [5]: 5 to 10 µM
- IC50 [6]: ~30 µM
- sensitivity of HL-60/AR compared to parental HL-60 cells [7]: equally sensitive
- protection by glutamine from cytotoxic effect [8]: partial protection
- protection by glutamine from cytotoxic effect [9]: no protection
- change in BAD / phosphorylation at Ser112 ([10]; 10 μM): did not cause any significant change
- change in BAD / phosphorylation at Ser112 ([10]; 50 μM): almost complete dephosphorylation
- dephosphorylation of BAD, comparison ([10]; 3 h incubation): more effective than 3-BrPA
- killing CLL cells as measured by IC50 values, comparison [11]: more potent than 3-BrPA
- reduced colony formation ([12]; 40 μM in combination with radiation (6 Gy), hypoxic conditions): more than 99.9%
- sensitivity under hypoxic conditions ([12]; drug alone, hypoxic versus normoxic): more sensitive
- cells undergoing apoptosis [13]: > 90%
- sensitivity under hypoxic versus normoxic conditions [14]: significantly more sensitive
- sensitivity of Bcl-2 transfected cells compared to transfected control (Neo) [15]: remain sensitive

Reference: patent US20060058383A1 (priority 2004, published 2006)
